Experimental findings from PMC8537218, “Discovery of a Novel Class of Norovirus Inhibitors with High Barrier of Resistance” (Pharmaceuticals, 2021) are described below.

What is called EC50 is the concentration giving half of the maximal effect. What is called melting point is the temperature, or range, at which the solid turns liquid. For orientation: CC50 means the concentration giving 50% cytotoxicity.

Where two headings read alike, the source gives them in different places.

The test system of data set [1] is MNV. Description: Time-of-drug-addition assay (TOA) in MNV-infected RAW 264.7 cells. It counts as cell-based, Murine norovirus. The following applies: time-of-addition experiment. The method, then:
RAW 264.7 cells (4 × 10^5 cells/mL) were infected with MNV (MOI of 1). After 1 h at 4 °C, cells were washed with cold (4 °C) DMEM to remove unbound viruses. Cells were incubated at 37 °C to start the infection. To study the replication kinetics of MNV supernatant and cells were harvested, from untreated cultures, every 2 h until 24 h post-infection (pi) and viral RNA was quantified by RT-qPCR. In parallel, another set of infected cultures were treated with compound. The compound was added at 2 h intervals and cultures were further incubated until 24 h pi, supernatant and cells were collected separately for determination of the viral RNA by RT-qPCR. The isolation of the extracellular MNV RNA from cell culture supernatant was done by the NucleoSpin RNA Virus Kit (Macherey–Nagel), and the intracellular RNA was extracted from cells by the RNeasy kit (Qiagen).

The subject of data set [2] is MNV.CW3/S131T and MNV.CW3/Y154F. Description: Antiviral assay on reverse-engineered MNV.CW3 mutant viruses (S131T, Y154F). It counts as cell-based, Murine norovirus. The following applies: single mutations S131T or Y154F in MNV backbone. The protocol:
The desired mutations were introduced into the MNV.CW3 cDNA clones using the QuikChange II XL mutagenesis kit (Agilent) according to the manufacturer’s instructions. The presence of the desired mutation in the produced construct was confirmed by PCR and sequencing was done by Macrogen Inc. Sequences were analyzed and mutations were detected using the Geneious software.
The MNV.CW3 mutant viral stocks were obtained by transfecting the mutated plasmid pMNV CW3 (kindly provided by Prof. Wobus, University of Michigan) in Huh 7 Lunet cells expressing the MNV receptor CD300lf (kindly provided by Prof. Taube, University of Lübeck). Huh-7 CD300lf cells were cultured under selective pressure of G418. The Huh-7 CD300lf cells were seeded in 6-well plates at a density of 2 × 10^5 cells/mL in 2.5 mL of complete media. After 24 h, the cells were transfected with 2.5 μg of pMNV CW3 plasmid DNA using the TransIT mRNA Transfection Kit (Mirus Bio Corporation) according to the manufacturer’s protocol. Red fluorescent protein (RFP) was used as a positive control for transfection. Transfected cells were incubated for 48 h, cells underwent two freeze thaw cycles and the virus was harvested from the supernatants after centrifugation (10 min, 1000× g) and stored at −80 °C. Virus stocks were passaged for three times on BV-2 cells and followed by two consecutive passages on RAW 264.7 cells. Viral titers were determined by serial dilutions on RAW 264.7 cells seeded in 96-well plates.
The assessment of the antiviral activity of compounds on resistant viruses was performed similarly as the regular antiviral assay on MNV. First, the titer of the resistant viruses was determined by endpoint titration. A concentration of 30× TCID50 was used for each virus in the antiviral assays. RAW 264.7 cells (1 × 10^4 cells/well) were seeded in the presence of a dilution series of compounds and infected. Antiviral activity was determined using the MTS method. The 50% effective concentration (EC50) was defined as the compound concentration that protected 50% of the cells from CPE.

Data set [3] has as its system HuNoV GI.1 replicon (Norwalk replicon). Description: HuNoV GI.1 replicon assay in HG23 cells (RT-qPCR). It counts as cell-based, Human norovirus. The following applies: Norovirus, HG23, 72 h, Norwalk replicon (human GI.1), HG23 cells, 72 h, replicon RNA by RT-qPCR; read-out: HuNoV Replicon EC50 ± SD. The method, then: HuNoV GI.1 replicon: The experiment was performed as described earlier with minor modifications. In short, HG23 cells (7.5 × 10^2 cells/well) were seeded into the wells of a 96-well plate without G418 (Geneticin Selective Antibiotic). After 24 h of incubation, serial dilutions of compounds were added. Cells were further incubated for 72 h, then cells were collected for RNA load quantification by RT-qPCR. To determine relative levels of Norwalk virus replicon RNA, β-actin was used as a normalizer and ratios were calculated as previously described.
(Replicon systems follow genome replication, usually without infectious particles.)

Data set [4] relates to Murine norovirus type 1, strain CW1. Nature of the data set: MNV-induced CPE reduction assay (MTS read-out) in RAW 264.7 cells. It counts as cell-based. The following applies: MNV CW1, RAW 264.7 cells, read-out: MNV EC50 ± SD. The method, then:
(§1) Norovirus: The experiment was performed as described earlier. In short, RAW 264.7 cells (1 × 10^4 cells/well) were infected with MNV.CW1 in the presence of a dilution series of compounds. Antiviral activity and cytotoxicity were determined using a colometric assay using 3-(4,5-dimethylthiazol-2-yl)-5-(3-carboxymethoxyphenyl)-2-(4-sulfophenyl)-2H-tetrazolium (MTS). The 50% effective concentration (EC50) was defined as the compound concentration that protected 50% of the cells from CPE. The cell viability % was calculated as (ODtreated/ODCC) […] and the 50% cytotoxic concentration (CC50) was defined as the compound concentration that reduces the number of viable cells by 50%.

Data set [5] is described as follows: Cytotoxicity assay (MTS) on non-infected RAW 264.7 cells. It counts as cell-based. The following applies: mouse, non-infected RAW 264.7 cells, cytotoxic concentration to induce 50% death of non-infected RAW 264.7 cells; read-out: MNV CC50 ± SD. The protocol: as §1
The subject of data set [6] is RAW 264.7 cells. Described as above. It counts as cell-based. The following applies: RAW 264.7 cells. The method, then: as §1
The mark [7] stands for this setting: RAW264.7, concentration inhibiting norovirus induced cell death (CPE) by 50%.

In the case of `C[C@@]1(O)[C@H](O)[C@@H](CO)O[C@H]1n1ccc(N)nc1=O` [2CMC, 2′-C-methylcytidine, reference compound], the “step of the MNV replication cycle at which the compound acts” value in data set [1] is “onset of the viral genome replication”. Further, the “shift in EC50 / sensitivity of mutant viruses” value in data set [2] is “remained equally sensitive”.

`Cc1cc(C)cc(S(=O)(=O)c2c(C(=O)Nc3ccc(CO)cc3)[nH]c3ccc(Cl)cc23)c1` [compound 1, 5-Chloro-3-((3,5-dimethylphenyl)sulfonyl)-N-(4-(hydroxymethyl)phenyl)-1H-indole-2-carboxamide] displayed a melting point of 220 to 221 °C. The EC50 in data set [3] is roughly 2 µM. Further, the EC50 in data set [4] (setting [7]) was 0.5 ± 0.1 µM. Also, the EC50 in data set [4] (concentration inhibiting norovirus induced cell death (CPE) by 50%) came out at 0.52 ± 0.07 µM. Further, the CC50 in data set [5] was greater than 100 µM.

Take `Cc1cc(C)cc(S(=O)(=O)c2c(C(=O)NCc3ccccc3)[nH]c3ccc(Cl)cc23)c1` [compound 2, N-Benzyl-5-chloro-3-((3,5-dimethylphenyl)sulfonyl)-1H-indole-2-carboxamide]: the EC50 in data set [3] is 3.66 ± 0.66 µM; in data set [4] (setting [7]) it was greater than 100 µM. In addition, the CC50 in data set [5] is greater than 100 µM.

For `Cc1cc(C)cc(S(=O)(=O)c2c(C(=O)NCCO)[nH]c3ccc(Cl)cc23)c1` [compound 3, 5-Chloro-3-((3,5-dimethylphenyl)sulfonyl)-N-(2-hydroxyethyl)-1H-indole-2-carboxamide], the EC50 is 47.7 ± 3.39 µM in data set [3] and greater than 100 µM in data set [4] (setting [7]). Moreover, the CC50 in data set [5] was 88.7 ± 4.75 µM.

On to `Cc1cc(C)cc(S(=O)(=O)c2c(C(=O)NCc3ccc(O)cc3)[nH]c3ccc(Cl)cc23)c1` [compound 4, 5-Chloro-3-((3,5-dimethylphenyl)sulfonyl)-N-(4-hydroxybenzyl)-1H-indole-2-carboxamide], for which the melting point was in the range of 236 to 237 °C. In addition, the 50% effective concentration (EC50) in data set [3] amounted to 88.3 ± 4.75 µM. Further, the EC50 in data set [4] (setting [7]) was greater than 100 µM. Further, the “cytotoxicity (in words)” value in data set [6] was “highly cytotoxic”. Further, the CC50 in data set [5] is 3.48 ± 1.1 µM.

`O=C(Nc1ccc(CO)cc1)c1[nH]c2ccc(Cl)cc2c1S(=O)(=O)c1ccccc1` [compound 5, 5-Chloro-N-(4-(hydroxymethyl)phenyl)-3-(phenylsulfonyl)-1H-indole-2-carboxamide]: the melting point is 152 to 155 °C. The EC50 in data set [4] (setting [7]) was greater than 100 µM. In addition, in data set [5], the CC50 worked out at 34.9 ± 5.03 µM.

For the compound `Cc1cc(C)cc(Cc2c(C(=O)NCc3ccc(CO)cc3)[nH]c3ccc(Cl)cc23)c1` [compound 7, 5-Chloro-3-(3,5-dimethylbenzyl)-N-(4-(hydroxymethyl)benzyl)-1H-indole-2-carboxamide], the melting point was in the range of 171 to 174 °C. In data set [3], the EC50 is 5.59 ± 2.47 µM. Further, the EC50 in data set [4] (setting [7]) worked out at 0.84 ± 0.22 µM. Also, the CC50 in data set [5] amounted to 9.27 ± 6.6 µM.

As to `Cc1cc(C)cc(C(=O)c2c(C(=O)NCc3ccc(CO)cc3)[nH]c3ccc(Cl)cc23)c1` [compound 8, 5-Chloro-3-(3,5-dimethylbenzoyl)-N-(4-(hydroxymethyl)benzyl)-1H-indole-2-carboxamide], the melting point lay in the range of 271 to 274 °C. In data set [4] (setting [7]), the EC50 was greater than 100 µM. Also, the CC50 in data set [5] was found to be 7.97 ± 15.3 µM.

Compound `Cc1cc(C)cc(Sc2c(C(=O)NCc3ccc(CO)cc3)[nH]c3ccc(Cl)cc23)c1` [compound 9, 5-Chloro-3-((3,5-dimethylphenyl)thio)-N-(4-(hydroxymethyl)benzyl)-1H-indole-2-carboxamide] gave a melting point of 212 to 215 °C. In data set [3], the EC50 came to 11.8 ± 8.4 µM. Further, the EC50 in data set [4] (setting [7]) worked out at 4.39 ± 4.78 µM. Further, the CC50 in data set [5] turned out to be 31.7 ± 8.01 µM.

Regarding `O=C(NCc1ccc(CO)cc1)c1[nH]c2ccc(Cl)cc2c1S(=O)(=O)c1ccccc1` [compound 10, 5-Chloro-N-(4-(hydroxymethyl)benzyl)-3-(phenylsulfonyl)-1H-indole-2-carboxamide], the melting point lay within 182 to 185 °C. The concentration for a half-maximal effect (EC50) in data set [3] was 18.5 ± 16.3 µM. Further, in data set [4] (setting [7]), the EC50 was determined as 0.63 ± 0.48 µM. In addition, in data set [5], the CC50 was determined as 25.7 ± 34.9 µM.

Turning to `Cc1cc(C)cc(S(=O)(=O)c2c(C(=O)NCCc3ccc(O)cc3)[nH]c3ccc(Cl)cc23)c1` [compound 11, 5-Chloro-3-((3,5-dimethylphenyl)sulfonyl)-N-(4-hydroxyphenethyl)-1H-indole-2-carboxamide], the melting point was in the range of 231 to 234 °C. Moreover, in data set [3], the EC50 was found to be 27.5 ± 28.7 µM. Further, the EC50 in data set [4] (setting [7]) worked out at 36 ± 23.3 µM. Moreover, the “cytotoxicity (in words)” value in data set [6] is “highly cytotoxic”. Moreover, the CC50 in data set [5] was determined as 8.49 ± 8.09 µM.

Take `CCOC(=O)/C=C/[C@H](C[C@@H]1CCNC1=O)NC(=O)[C@@H](CC(=O)[C@@H](NC(=O)c1cc(C)on1)C(C)C)Cc1ccc(F)cc1` [rupintrivir]: in data set [2], the “shift in EC50 / sensitivity of mutant viruses” value is on record as “remained equally sensitive”.
